In PubChem BioAssay AID256 (DTP/NCI, 2004):
Where “and” joins values, the source holds several entries; their conditions need not be identical. Equal entries are not always repeated. Inconclusive results and toxic doses are left out.

Test system: CD2F1 mice, L1210 leukemia ip, survival T/C
Test: NCI In Vivo Anticancer Drug Screen. Data for tumor model L1210 Leukemia (intraperitoneal) in CD2F1 (CDF1) mice
Conditions: higher = longer survival
How it was run: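 Activity against a transplanted murine tumor was judged by comparing the compound group with a vehicle group. The outcome in the treated animals was divided by that in the controls.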

In the case of O=c1[nH]cc(F)c(=O)[nH]1, the T/C (endpoint: mean survival time, dose: 2.5 mg/kg/injection, schedule: Q01DX009 (ip), vehicle: saline) is reported as 113 % of control, the T/C (endpoint: mean survival time, dose: 3.75 mg/kg/injection, schedule: Q01DX003 (ip), vehicle: saline) is reported as 116 % of control and the T/C (endpoint: mean survival time, dose: 3.75 mg/kg/injection, schedule: Q01DX005 (ip), vehicle: saline) is reported as 114 % of control and 122 % of control. The T/C (endpoint: mean survival time, dose: 4.0 mg/kg/injection, schedule: Q03HX016 (ip), vehicle: water) was 167 % of control, the T/C (endpoint: mean survival time, dose: 4.0 mg/kg/injection, schedule: Q03HX024 (ip), vehicle: water) was 153 % of control and the T/C (endpoint: mean survival time, dose: 5.0 mg/kg/injection, schedule: Q01DX009 (ip), vehicle: saline) was 124 % of control. For the same molecule, the T/C (endpoint: mean survival time, dose: 7.5 mg/kg/injection, schedule: Q03HX024 (ip), vehicle: saline) was 157 % of control, the T/C (endpoint: mean survival time, dose: 8.0 mg/kg/injection, schedule: Q01DX009 (ip), vehicle: water) was 151 % of control and the T/C (endpoint: mean survival time, dose: 8.0 mg/kg/injection, schedule: Q03HX016 (ip), vehicle: water) was 154 % of control. For the same molecule, the T/C (endpoint: mean survival time, dose: 10.0 mg/kg/injection, schedule: Q01DX002 (ip), vehicle: saline) was 124 % of control, the T/C (endpoint: mean survival time, dose: 10.0 mg/kg/injection, schedule: Q01DX006 (ip), vehicle: saline) was 161 % of control and the T/C (endpoint: mean survival time, dose: 10.0 mg/kg/injection, schedule: Q03HX016 (ip), vehicle: saline) was 152 % of control. The T/C (endpoint: mean survival time, dose: 10.8 mg/kg/injection, schedule: Q01DX009 (ip), vehicle: saline) was 150 % of control, the T/C (endpoint: mean survival time, dose: 12.0 mg/kg/injection, schedule: Q04DX003 (ip), vehicle: saline) was 121 % of control and the T/C (endpoint: mean survival time, dose: 12.5 mg/kg/injection, schedule: Q03HX024 (oral), vehicle: saline) was 122 % of control. For the same molecule, the T/C (endpoint: mean survival time, dose: 13.3 mg/kg/injection, schedule: Q01DX009 (ip), vehicle: saline sonified) was 168 % of control, the T/C (endpoint: mean survival time, dose: 14.0 mg/kg/injection, schedule: Q01DX009 (ip), vehicle: saline sonified) was 160 % of control and the T/C (endpoint: mean survival time, dose: 14.0 mg/kg/injection, schedule: Q01DX009 (ip), vehicle: saline with Tween-80) was 157 % of control and 172 % of control. The T/C (endpoint: mean survival time, dose: 15.0 mg/kg/injection, schedule: Q01DX005 (ip), vehicle: saline) was 158 % of control and 169 % of control, the T/C (endpoint: mean survival time, dose: 16.0 mg/kg/injection, schedule: Q01DX009 (oral), vehicle: saline) was 114 % of control and the T/C (endpoint: mean survival time, dose: 16.0 mg/kg/injection, schedule: Q03HX008 (ip), vehicle: water) was 163 % of control. For the same molecule, the T/C (endpoint: mean survival time, dose: 16.0 mg/kg/injection, schedule: Q03HX024 (ip), vehicle: water) was 120 % of control, the T/C (endpoint: mean survival time, dose: 20.0 mg/kg/injection, schedule: Q01DX009 (ip), vehicle: saline sonified) was 169 % of control and the T/C (endpoint: mean survival time, dose: 20.0 mg/kg/injection, schedule: Q03DX003 (ip), vehicle: saline) was 152 % of control. The T/C (endpoint: mean survival time, dose: 22.5 mg/kg/injection, schedule: Q01DX009 (ip), vehicle: saline) was 117 % of control, the T/C (endpoint: mean survival time, dose: 25.0 mg/kg/injection, schedule: Q01DX001 (ip), vehicle: saline) was 117 % of control and the T/C (endpoint: mean survival time, dose: 25.0 mg/kg/injection, schedule: Q03HX024 (oral), vehicle: saline) was 118 % of control. For the same molecule, the T/C (endpoint: mean survival time, dose: 30.0 mg/kg/injection, schedule: Q01DX003 (ip), vehicle: saline) was 168 % of control, the T/C (endpoint: mean survival time, dose: 30.0 mg/kg/injection, schedule: Q01DX003 (oral), vehicle: saline) was 123 % of control and the T/C (endpoint: mean survival time, dose: 30.0 mg/kg/injection, schedule: Q01DX005 (oral), vehicle: saline) was 119 % of control. For the same molecule, the T/C (endpoint: mean survival time, dose: 30.0 mg/kg/injection, schedule: Q01DX009 (ip), vehicle: saline sonified) was 152 % of control, the T/C (endpoint: mean survival time, dose: 30.0 mg/kg/injection, schedule: Q04DX003 (ip), vehicle: saline sonified) was 152 % of control and the T/C (endpoint: mean survival time, dose: 32.0 mg/kg/injection, schedule: Q04DX003 (ip), vehicle: water) was 169 % of control. For the same molecule, the T/C (endpoint: mean survival time, dose: 32.0 mg/kg/injection, schedule: Q08DX002 (ip), vehicle: water) was 154 % of control, the T/C (endpoint: mean survival time, dose: 40.0 mg/kg/injection, schedule: Q04DX003 (ip), vehicle: saline sonified) was 165 % of control and the T/C (endpoint: mean survival time, dose: 40.0 mg/kg/injection, schedule: Q04DX003 (ip), vehicle: saline with Tween-80) was 160 % of control and 163 % of control and 172 % of control. The T/C (endpoint: mean survival time, dose: 44.0 mg/kg/injection, schedule: Q04DX003 (ip), vehicle: saline) was 172 % of control, the T/C (endpoint: mean survival time, dose: 50.0 mg/kg/injection, schedule: Q01DX009 (oral), vehicle: saline) was 116 % of control and the T/C (endpoint: mean survival time, dose: 50.0 mg/kg/injection, schedule: Q03HX008 (oral), vehicle: saline) was 122 % of control. The T/C (endpoint: mean survival time, dose: 50.0 mg/kg/injection, schedule: Q04DX003 (ip), vehicle: saline) was 172 % of control, the T/C (endpoint: mean survival time, dose: 60.0 mg/kg/injection, schedule: Q01DX005 (oral), vehicle: saline) was 117 % of control and the T/C (endpoint: mean survival time, dose: 60.0 mg/kg/injection, schedule: Q03HX024 (ip), vehicle: saline) was 164 % of control. For the same molecule, the T/C (endpoint: mean survival time, dose: 60.0 mg/kg/injection, schedule: Q04DX003 (ip), vehicle: saline sonified) was 164 % of control, the T/C (endpoint: mean survival time, dose: 60.0 mg/kg/injection, schedule: Q04DX003 (ip), vehicle: saline with Tween-80) was 164 % of control and the T/C (endpoint: mean survival time, dose: 62.5 mg/kg/injection, schedule: Q01DX001 (oral), vehicle: saline) was 113 % of control. The T/C (endpoint: mean survival time, dose: 64.0 mg/kg/injection, schedule: Q01DX009 (oral), vehicle: saline) was 119 % of control, the T/C (endpoint: mean survival time, dose: 64.0 mg/kg/injection, schedule: Q04DX003 (ip), vehicle: water) was 160 % of control and the T/C (endpoint: mean survival time, dose: 64.0 mg/kg/injection, schedule: Q08DX002 (ip), vehicle: water) was 164 % of control. The T/C (endpoint: mean survival time, dose: 67.5 mg/kg/injection, schedule: Q04DX003 (ip), vehicle: saline) was 150 % of control, the T/C (endpoint: mean survival time, dose: 80.0 mg/kg/injection, schedule: Q03HX024 (ip), vehicle: saline) was 176 % of control and the T/C (endpoint: mean survival time, dose: 80.0 mg/kg/injection, schedule: Q04DX003 (ip), vehicle: saline sonified) was 160 % of control. The T/C (endpoint: mean survival time, dose: 100.0 mg/kg/injection, schedule: Q08DX002 (oral), vehicle: saline) was 151 % of control, the T/C (endpoint: mean survival time, dose: 128.0 mg/kg/injection, schedule: Q04DX003 (ip), vehicle: water) was 120 % of control and the T/C (endpoint: mean survival time, dose: 128.0 mg/kg/injection, schedule: Q08DX002 (ip), vehicle: water) was 167 % of control. For the same molecule, the T/C (endpoint: mean survival time, dose: 132.0 mg/kg/injection, schedule: Q01DX001 (ip), vehicle: saline) was 153 % of control, the T/C (endpoint: mean survival time, dose: 166.0 mg/kg/injection, schedule: Q01DX001 (ip), vehicle: saline with Tween-80) was 150 % of control and the T/C (endpoint: mean survival time, dose: 200.0 mg/kg/injection, schedule: Q01DX001 (oral), vehicle: saline) was 118 % of control. For the same molecule, the T/C (endpoint: mean survival time, dose: 200.0 mg/kg/injection, schedule: Q04DX003 (ip), vehicle: saline) was 159 % of control, the T/C (endpoint: mean survival time, dose: 256.0 mg/kg/injection, schedule: Q08DX002 (ip), vehicle: water) was 120 % of control and the T/C (endpoint: mean survival time, dose: 300.0 mg/kg/injection, schedule: Q01DX001 (ip), vehicle: saline with Tween-80) was 153 % of control. For the same molecule, the T/C (endpoint: mean survival time, dose: 338.0 mg/kg/injection, schedule: Q01DX001 (ip), vehicle: saline) was 150 % of control, the T/C (endpoint: mean survival time, dose: 400.0 mg/kg/injection, schedule: Q04DX003 (ip), vehicle: saline with Tween-80) was 117 % of control and the T/C (endpoint: mean survival time, dose: 400.0 mg/kg/injection, schedule: Q04DX003 (ip), vehicle: saline) was 161 % of control. For the same molecule, the T/C (endpoint: median survival time, dose: 6.48 mg/kg/injection, schedule: Q01DX009 (ip), vehicle: saline) was 120 % of control, the T/C (endpoint: median survival time, dose: 7.5 mg/kg/injection, schedule: Q01DX009 (ip), vehicle: saline) was 153 % of control and the T/C (endpoint: median survival time, dose: 7.5 mg/kg/injection, schedule: Q## X009 (ip), vehicle: saline) was 153 % of control. For the same molecule, the T/C (endpoint: median survival time, dose: 10.0 mg/kg/injection, schedule: Q01DX001 (ip), vehicle: saline) was 152 % of control, the T/C (endpoint: median survival time, dose: 13.0 mg/kg/injection, schedule: Q04DX002 (ip), vehicle: saline) was 121 % of control and the T/C (endpoint: median survival time, dose: 13.0 mg/kg/injection, schedule: Q04DX003 (ip), vehicle: saline) was 121 % of control. The T/C (endpoint: median survival time, dose: 14.3 mg/kg/injection, schedule: Q04DX003 (ip), vehicle: saline) was 124 % of control, the T/C (endpoint: median survival time, dose: 15.0 mg/kg/injection, schedule: Q01DX005 (ip), vehicle: saline) was 165 % of control and the T/C (endpoint: median survival time, dose: 15.0 mg/kg/injection, schedule: Q01DX009 (ip), vehicle: saline) was 167 % of control. The T/C (endpoint: median survival time, dose: 15.0 mg/kg/injection, schedule: Q## X009 (ip), vehicle: saline) was 167 % of control, the T/C (endpoint: median survival time, dose: 20.0 mg/kg/injection, schedule: Q01DX001 (ip), vehicle: saline) was 154 % of control and the T/C (endpoint: median survival time, dose: 21.6 mg/kg/injection, schedule: Q04DX002 (ip), vehicle: saline) was 123 % of control. The T/C (endpoint: median survival time, dose: 30.0 mg/kg/injection, schedule: Q01DX009 (ip), vehicle: saline) was 173 % of control, the T/C (endpoint: median survival time, dose: 36.0 mg/kg/injection, schedule: Q04DX003 (ip), vehicle: saline) was 160 % of control and 167 % of control and the T/C (endpoint: median survival time, dose: 39.6 mg/kg/injection, schedule: Q04DX003 (ip), vehicle: saline) was 164 % of control. The T/C (endpoint: median survival time, dose: 40.0 mg/kg/injection, schedule: Q04DX002 (ip), vehicle: saline) was 162 % of control, the T/C (endpoint: median survival time, dose: 80.0 mg/kg/injection, schedule: Q04DX002 (ip), vehicle: saline) was 166 % of control and the T/C (endpoint: median survival time, dose: 100.0 mg/kg/injection, schedule: Q04DX003 (ip), vehicle: saline) was 151 % of control. For the same molecule, the T/C (endpoint: median survival time, dose: 300.0 mg/kg/injection, schedule: Q01DX001 (ip), vehicle: Klucel (hydroxypropylcellulose) (HPC)) was 174 % of control.

For Cc1nc2c(N)cc(Cl)cc2[nH]1, the T/C (endpoint: median survival time, dose: 25.0 mg/kg/injection, schedule: Q01DX005 (ip), vehicle: saline with Tween-80) was 101 % of control, the T/C (endpoint: median survival time, dose: 50.0 mg/kg/injection, schedule: Q01DX005 (ip), vehicle: saline with Tween-80) was 101 % of control and the T/C (endpoint: median survival time, dose: 100.0 mg/kg/injection, schedule: Q01DX005 (ip), vehicle: saline with Tween-80) was 103 % of control.
